Results reported in US20060205808A1, “Anti-inflammatory and cure for ageing, Alzheimer's disease on phloroglucinol derivatives” (Kaohsiung Medical University, priority 2005, published 2006).

Legend:
[1] = system: RAW 264.7 macrophage-like cells; test: NO production (nitrite accumulation, Griess reaction) in RAW 264.7 cells in response to LPS; type: cell-based; details: LPS (1 μg mL^−1), 24 h; for IC50: read-out: IC50, accumulation of NO2^− in culture media, RAW 264.7 cells
Experimental: (§1) Treatment of RAW 264.7 macrophage-like cells with LPS (1 μg mL^−1) or N9 microglial cells with LPS (10 ng mL^−1)/IFN-γ (10 U mL^−1) for 24 h induced NO production as assessed by measuring the accumulation of nitrite, a stable metabolite of NO, in the media, based on the Griess reaction. […] 1400 W was used in this experiment as a positive control.

[2] = system: N9 microglial cells; test: NO production (nitrite accumulation, Griess reaction) in N9 cells in response to LPS/IFN-γ; type: cell-based; details: LPS (10 ng mL^−1)/IFN-γ (10 U mL^−1); for IC50: read-out: IC50, accumulation of NO2^− in culture media, N9 cells
Experimental: as §1

[3] = system: rat neutrophils; test: release of β-glucuronidase from rat neutrophils stimulated with fMLP/CB; type: cell-based; details: fMLP (1 μM)/CB (5 μg mL^−1); for IC50: means ± s.e.m. (n = 3-5)
[4] = system: rat neutrophils; test: release of lysozyme from rat neutrophils stimulated with fMLP/CB; type: cell-based; details: fMLP (1 μM)/CB (5 μg mL^−1); for IC50: means ± s.e.m. (n = 3-5)
[5] = system: rat neutrophils; test: fMLP/CB-induced superoxide anion generation in rat neutrophils; type: cell-based
Experimental: (§2) FMLP (0.3 μM)/CB (5 μg mL^−1) or phorbol myristate acetate (PMA) (3 nM) stimulated superoxide anion generation in rat neutrophils. […] Trifluoperazine was used in this experiment as a positive control.

[6] = system: rat neutrophils; test: PMA-induced superoxide anion generation in rat neutrophils; type: cell-based; details: PMA (3 nM)
Experimental: as §2

[7] = system: mast cells and neutrophils; details: background statement; cited from earlier work

Compound	IC50 [1]	IC50 ([2]; 24 h)	IC50 [3]	IC50 [4]	IC50 ([5]; fMLP (0.3 μM)/CB (5 μg mL^−1))	IC50 [6]	% of inhibition at the highest concentration, superoxide anion, PMA [6]	% of inhibition at the highest concentration, NO2^− accumulation, RAW 264.7 cells [1]	inhibition of chemical mediators release from mast cells and neutrophils (in words) [7]	further results
CC(C)=CCC1CC2(CC=C(C)C)C(=O)C(C(=O)C(C)C)(C(=O)C(C=CC(C)(C)O)=C2O)C1(C)C (centres unmarked) [Compound 1, Garcinielliptone F]	> 10 µM	> 3 µM	26.9 ± 2.6 µM	20 ± 1.3 µM	17 ± 0.9 µM	> 30 µM	46.8 ± 4.5%	22.9 ± 2.9%	–	inhibitory effect on release of β-glucuronidase (in words) [3]: potent inhibitory effects; inhibitory effect on release of lysozyme (in words) [4]: potent inhibitory effects; inhibitory effect on fMLP/CB-induced superoxide anion generation (in words) ([5]; fMLP/CB (5 μg mL^−1)): potent inhibitory effect; % of inhibition at the highest concentration, NO2^− accumulation, N9 cells ([2]; 24 h, highest concentration): 31.2 ± 0.7%
CC(C)=CC[C@H]1C[C@]2(CC=C(C)C)C(=O)[C@]3(CC=C(C)C)O[C@@]1(C(=O)C(C)C)[C@@]2(O)C(C)(C)C3=O [garcinielliptin oxide]	–	–	–	–	–	–	–	–	strongly inhibited	–
CC(C)=CCC1=C2O[C@H](C(C)(C)O)C[C@@]23C[C@H](CC=C(C)C)C(C)(C)[C@@](C(=O)C(C)C)(C1=O)C3=O [Garsubellin A]	–	–	–	–	–	–	–	–	strongly inhibited	–
CN1CCN(CCCN2c3ccccc3Sc3ccc(C(F)(F)F)cc32)CC1 [Trifluoperazine, reference compound]	–	–	–	–	–	–	–	–	–	IC50 ([3]; Neutrophil): 10.6 ± 0.9 µM; IC50 ([4]; Neutrophil): 13.2 ± 0.7 µM; IC50 ([5]; Neutrophil, fMLP (0.3 μM)/CB (5 μg mL^−1)): 6.6 ± 0.2 µM; IC50 ([6]; Neutrophil): 2.7 ± 0.6 µM

The next lines start with results.

IC50 [1]	IC50 ([2]; 24 h)	IC50 [3]	IC50 [4]	IC50 ([5]; fMLP (0.3 μM)/CB (5 μg mL^−1))	IC50 [6]	Compound	% of inhibition at the highest concentration, superoxide anion, PMA [6]	% of inhibition at the highest concentration, NO2^− accumulation, RAW 264.7 cells [1]	inhibition of chemical mediators release from mast cells and neutrophils (in words) [7]	further results
3 ± 0.2 µM	2.2 ± 0.1 µM	–	–	–	–	CC(=N)NCc1cccc(CN)c1 [Compound 1400W, N-(3-Aminomethyl) benzylacetamidine, reference compound]	–	–	–	–
> 30 µM	7.4 ± 0.2 µM	> 30 µM	> 30 µM	> 30 µM	> 30 µM	Garcinielliptone I [Compound 4]	−76.3 ± 7.3%	17.4 ± 1.5%	–	% of inhibition at the highest concentration, β-Glucuronidase release ([3]; highest concentration): 15.6 ± 2.7%; % of inhibition at the highest concentration, Lysozyme release ([4]; highest concentration): −1.6 ± 7.3%; % of inhibition at the highest concentration, superoxide anion, fMLP/CB ([5]; fMLP (0.3 μM)/CB (5 μg mL^−1), highest concentration): 2.8 ± 5.7%; effect on production of NO induced by LPS/IFN-γ in N9 cells (in words) [2]: potent inhibitory effect
